Consider 6 molecules from US10189796B2, “[4-(1,3,3-trimethyl-2-oxo-3,4-dihydro-1H-quinoxalin-7-yl)phenoxy]ethyloxy compound or salt thereof” (SANTEN PHARMACEUTICAL CO., LTD., priority 2015, dated 2019).

Assay [1] has as its system TNFα production in rat whole blood. The assay can be described thus: TNFα production inhibitory action evaluation test (LPS stimulation ex vivo, ELISA). Type of assay: cell-based. As to conditions: 20 hours, 200 μM test compound solution 10 μL/well, DEX treated group = 100, read-out: TNFα production inhibitory ratio (% DEX). On the procedure:
In order to evaluate an action of the present compound as a GR agonist, a TNFα production inhibitory action in rat whole blood after LPS stimulation ex vivo was investigated. For the measurement of the TNFα production amount, the ELISA method (manufactured by R&D Systems, Cat No. RTA00) was used, and a procedure was carried out according to the protocol attached thereto. Hereinafter, the specific method will be described.
LPS solution: LPS was dissolved in PBS(−) and diluted with RPMI 1640 to prepare an LPS solution with a concentration of 2 μg/mL.
After the test compound was dissolved in dimethylsulfoxide, the solution was diluted with PBS(−) to prepare 200 μM of a test compound solution. In addition, DEX was similarly dissolved to prepare 200 μM of a DEX solution, and a TNFα production inhibitory ratio of DEX was measured, and used for calculation of Efficacy (% DEX).
• 1) Blood was collected from 3 to 5 rats using an injection syringe treated with heparin from the abdominal aorta under isoflurane anesthesia. The rats confirmed death after lething the whole blood. • 2) The blood of 3 to 5 rats pooled in a 96-well round bottom culture plate was seeded at each 180 μL/well. • 3) It was cultured (37° C., 5% CO2, 95% air) for about 1 hour. • 4) The test compound solution was added each 10 μL/well, and cultured for 1 hour. • 5) LPS solution was added each 10 μL/well. • 6) The sample in which 2% dimethylsulfoxide-containing PBS(−) was added with each 10 μL/well in place of each test compound solution, and RPMI 1640 was added with each 10 μL/well in place of the LPS solution was made a negative control. • 7) The sample in which 2% dimethylsulfoxide-containing PBS(−) was added with each 10 μL/well in place of each test compound solution was made a positive control. • 8) After completion of 20 hours cultivation, the supernatant was recovered and the amount of TNFα released in the supernatant was measured by using an ELISA Kit. • 9) The TNFα production inhibitory ratio was calculated according to the following calculation formula. (Calculation of TNFα Production Inhibitory Ratio)
TNFα production inhibitory ratio (%) was calculated according to the following formula. TNFα production inhibitory ratio (%)=100×{1−(TNFα production amount of each test compound solution−average value of TNFα production amount of negative control group)/(average value of TNFα production amount of positive control group−average value of TNFα production amount of negative control group)}(%)
Further, a TNFα production inhibitory ratio (Efficacy (% DEX)) when the DEX treated group was made 100 was calculated. Efficacy (% DEX)=100×{(average value of TNFα production inhibitory ratio of each test compound solution)/(average value of TNFα production inhibitory ratio of DEX treated group)}(%)

The target in assay [2] is Recombinant human GR (Homo sapiens (Human), UniProt P04150). Kind of assay: GR competitive binding assay by fluorescence polarization. Particulars: 20 μM test compound solution, 10 μL/well; 2 hours; DEX positive control; read-out: GR binding rate (%). On the procedure: In order to evaluate a binding activity of the present compound to GR, a GR receptor competitor assay was carried out by a fluorescence polarization method. In the assay, a GR competitive binding assay kit (manufactured by Invitrogen, cat No. P2816) was used for the assay, and a procedure was carried out according to the protocol attached to the kit. Hereinafter, the specific method will be described.
GR screening buffer: A buffer containing 10 mM of potassium phosphate (pH 7.4), 20 mM of sodium molybdate (Na2MoO4), 0.1 mM of ethylene diamine tetraacetic acid (EDTA), 5 mM of dithiothreitol (DTT), 0.1 mM of stabilizing peptide and 2% of dimethylsulfoxide was prepared.
4×GS1 solution: Fluormone™ GS1, which is a fluorescent glucocorticoid ligand, was diluted with GR screening buffer, whereby a 4 nM solution was prepared.
4×GR solution: Recombinant human GR was diluted with GR screening buffer, whereby a 16 nM solution was prepared.
After a test compound was dissolved in dimethylsulfoxide, the resulting solution was diluted with GR screening buffer, whereby a 20 μM test compound solution was prepared. In addition, DEX was similarly dissolved, whereby a DEX solution with a […] concentration was prepared, and the solution was diluted with GR screening buffer, whereby a 2 mM DEX solution was prepared. DEX was used as positive control.
• 1) The test compound solution was added in an amount of 10 μL into each well of a 384-well plate. • 2) 4×GS1 solution and 4×GR solution were added in an amount of 5 μL into each well, respectively. • 3) GR screening buffer was added in an amount of 10 μL/well into each well in place of the test compound solution, which was made a negative control. • 4) A 2 mM of DEX was added in an amount of 10 μL/well into each well in place of the test compound solution, which was made a positive control. • 5) The plate was incubated in a dark place at room temperature for 2 hours, and fluorescence polarization of each well was measured. (Calculation Equation of GR Binding Ratio)
A GR binding ratio (%) was calculated from the following equation. GR binding ratio (%)=100×{1−(fluorescence polarization of test compound solution−average value of fluorescence polarization of positive control solution)/(average value of fluorescence polarization of negative control solution−average value of fluorescence polarization of positive control solution)}

Assay [3] has as its system IL-6 production in human corneal epithelium cell line (HCE-T). The assay can be described thus: IL-6 production inhibitory action evaluation test (LPS stimulation, HTRF). Type of assay: cell-based. Particulars: 4 hours. On the procedure: To evaluate the action of the present compounds as a GR agonist, IL-6 production inhibitory action in human corneal epithelial cell line after LPS stimulation was examined The IL-6 production was measured by using the HTRF method (Cat No. 62IL6PEB manufactured by Cisbio Bioassays, Inc.) according to the attached protocol. The specific method is described below.
LPS solution: After dissolving LPS in PBS(−), the resulting solution was diluted with a culture solution, whereby an LPS solution with a 1 μg/mL concentration was prepared.
After dissolving the test compound in dimethylsulfoxide, the solution was diluted with a 10% FBS-DMEM/Ham's F12 medium, whereby a 100 μM of the test compound solution was prepared. […] In addition, DEX was similarly dissolved, whereby a 100 μM concentration of the DEX solution was prepared, and an IL-6 production inhibitory ratio of DEX was measured, and used for calculation of Efficacy (% DEX).
Used cells: human corneal epithelium cell line (HCE-T) (RIKEN, Institute of Physical and Chemical Research)
The cells continued to subculture according to this method were used for the test. (Test Method and Measurement Method) • 1) The subcultured HCE-T was recovered and the cells were seeded at 2.0×10^4 cells/0.1 mL/well in a 96-well flat bottom culture plate. • 2) After culturing overnight, medium the medium was removed and each 80 μL/well of 10%
FBS-DMEM/Ham's F12 medium was added. • 3) Test compound solution was added with each 10 μL/well. • 4) LPS solution was added with each 10 μL/well. • 5) The sample to which 1% dimethylsulfoxide-containing 10% FBS-DMEM/Ham's F12 medium was added with each 10 μL/well in place of each test compound solution, and 10% FBS-DMEM/Ham's F12 medium was added in place of the LPS solution was made a negative control. • 6) The sample in which 1% dimethylsulfoxide-containing 10% FBS-DMEM/Ham's F12 medium was added with each 10 μL/well in place of each test compound solution was made a positive control. • 7) After completion of 4 hours cultivation, the supernatant was recovered and the amount of IL-6 released in the supernatant was measured by using an HTRF human IL-6 Kit. • 8) The IL-6 production inhibitory ratio was calculated according to the following calculation formula. (Calculation of IL-6 Production Inhibitory Ratio)
The IL-6 production inhibitory ratio (%) was calculated by the following formula. IL-6 production inhibitory ratio (%)=100×{1−(IL-6 produced amount of each test compound solution−average value of IL-6 produced amount of negative control group)/(average value of IL-6 produced amount of positive control group−average value of IL-6 produced amount of negative control group)}(%)
Further, the IL-6 production inhibitory ratio (Efficacy (% DEX)) when the DEX treated group was made 100 was calculated. Efficacy (% DEX)=100×{(average value of IL-6 production inhibitory ratio of each test compound solution)/(average value of IL-6 production inhibitory ratio of DEX treated group)}(%)
In addition, IC50 was calculated according to a conventional method. IDBS XLfit4 was used for the calculation.

Assay [4] deals with VEGF-induced retinal elevated vascular permeability model of rabbits. The assay can be described thus: Retinal vascular permeability model evaluation test. As to conditions: 2% 50 μL/base agent A, intravitreal once; 4 weeks before VEGF induction. Type of assay: in vivo, rabbit. On the procedure: In order to evaluate the inhibitory effect of the present compounds on VEGF-induced retinal vascular permeability, the inhibitory effect of the present compound on retinal vascular permeability in a VEGF-induced retinal elevated vascular permeability model of rabbits was evaluated. Incidentally, this effect was evaluated by calculating a leaked amount of the fluorescent dye of the base agent administered group (non-induced group), a leaked amount of the fluorescent dye of the base agent administered group (control group) and a leaked amount of the fluorescent dye of the test compound administered group.
To the test compound was added 0.01% Polysorbate 80/0.5% sodium carboxymethyl cellulose/PBS (hereinafter referred to as “base agent A”.), whereby 2% (W/V) or 8% (W/V) of the test compound suspension was prepared. Or else, to the test compound was added PEG400 (hereinafter referred to as “base agent B”.), whereby 6% (W/W) of the test compound solution was prepared.
VEGF solution: humanVEGF165 was dissolved in PBS to prepare 50 μg/mL of VEGF solution.
• 1) A mixed solution (1 mL/kg) of 5% ketamine hydrochloride injection solution and 2% xylazine hydrochloride injection solution with the ratio of 7:1 was intramuscularly administered to rabbits (Dutch male rabbits), and the rabbits were anesthetized. • 2) Tropicamide-phenylephrine hydrochloride ophthalmic solution (trade name: Midlin P) was eye dropped to maintain pupillary mydriasis, and then, the VEGF solution was intravitreally administered. Incidentally, PBS was intravitreally administered to the base agent administration group (non-induced group). • 3) Fluorescein was intravenously administered 2 days after intravitreal administration of VEGF. Two hours after the intravenous administration of fluorescein, an amount of the leaked fluorescent dye in the vitreous body was measured by using a fluorophotometer. (Test Method) • 1) One week before or 4 weeks before VEGF-induction, 50 μL of the test compound suspension (prepared by the base agent A) was intravitreally administered once, or 5 μL of the test compound solution (prepared by the base agent B) was intravitreally administered once. Incidentally, in the base agent administered group (non-induced group) and the base agent administered group (control group), the base agent A was used in place of the test compound suspension, or the base agent B was used in place of the test compound solution. • 2) Inhibition ratio of elevated retinal vascular permeability was calculated according to the following calculation formula. (Calculation Formula) Inhibitory ratio (%) on elevated retinal vascular permeability of the test compound administered group=100×{1−(average value of a leaked fluorescent dye amount in the test compound administered group−average value of a leaked fluorescent dye amount in the base agent administered group (non-induced group))/(average value of a leaked fluorescent dye amount in the base agent administered group (control group)−average value of a leaked fluorescent dye amount of the base agent administered group (non-induced group))}

Recombinant human GR, sequence (P04150 whole entry): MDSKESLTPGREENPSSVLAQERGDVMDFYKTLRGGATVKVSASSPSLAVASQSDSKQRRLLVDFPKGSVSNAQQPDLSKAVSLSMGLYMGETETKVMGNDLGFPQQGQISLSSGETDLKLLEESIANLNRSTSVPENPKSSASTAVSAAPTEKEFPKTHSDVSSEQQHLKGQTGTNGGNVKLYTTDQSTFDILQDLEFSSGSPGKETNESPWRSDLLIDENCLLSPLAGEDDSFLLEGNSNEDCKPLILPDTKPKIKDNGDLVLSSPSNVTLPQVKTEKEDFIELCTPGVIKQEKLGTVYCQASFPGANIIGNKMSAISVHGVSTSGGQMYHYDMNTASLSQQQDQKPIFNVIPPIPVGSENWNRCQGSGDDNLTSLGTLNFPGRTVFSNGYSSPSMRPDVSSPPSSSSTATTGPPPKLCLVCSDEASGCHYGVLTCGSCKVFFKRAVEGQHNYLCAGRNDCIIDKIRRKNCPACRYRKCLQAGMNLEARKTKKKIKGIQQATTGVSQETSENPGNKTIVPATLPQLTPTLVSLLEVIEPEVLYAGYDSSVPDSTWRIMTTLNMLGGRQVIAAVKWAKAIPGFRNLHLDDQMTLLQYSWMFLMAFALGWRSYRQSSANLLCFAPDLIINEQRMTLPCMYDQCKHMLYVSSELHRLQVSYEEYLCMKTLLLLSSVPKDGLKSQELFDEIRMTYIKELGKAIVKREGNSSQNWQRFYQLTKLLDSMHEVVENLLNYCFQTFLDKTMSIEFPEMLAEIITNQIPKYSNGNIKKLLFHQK

For the molecule `COc1cc(OCC(O)C(F)(F)F)ccc1-c1ccc2c(c1COc1cc(F)ccc1C)N(C)C(=O)C(C)(C)N2` (stereo not drawn) [Compound 1-2, 8-(5-Fluoro-2-methylphenoxymethyl)-7-[4-(2-hydroxy-3,3,3-trifluoro-propyl)oxy-2-methoxyphenyl]-1,3,3-trimethyl-3,4-dihydro-1H-quinoxalin-2-one], the Emax in assay [1] worked out at 94%.
Take `COc1cc(OC[C@@H](C)O)ccc1-c1ccc2c(c1COc1cc(F)ccc1C)N(C)C(=O)C(C)(C)N2` [Compound 1-3, (R)-8-(5-fluoro-2-methylphenoxymethyl)-7-[4-(2-hydroxypropyl)oxy-2-methoxy-phenyl]-1,3,3-trimethyl-3,4-dihydro-1H-quinoxalin-2-one]: the inhibition at 10 µM in assay [2] stood at 95%. For the same molecule, the Emax in assay [1] worked out at 93%.
As for `CC[C@@H](O)COc1ccc(-c2ccc3c(c2COc2cc(F)ccc2C)N(C)C(=O)C(C)(C)N3)c(OC)c1` [Compound 1-4, (R)-8-(5-fluoro-2-methylphenoxymethyl)-7-[4-(2-hydroxybutyl)oxy-2-methoxyphenyl]-1,3,3-trimethyl-3,4-dihydro-1H-quinoxalin-2-one], the inhibition at 10 µM in assay [2] was above 99%. Also, the Emax amounted to 92% in assay [3] (100 μM test compound solution 10 μL/well, DEX treated group = 100, read-out: IL-6 production inhibitory ratio (% DEX)) and 94% in assay [1]. Besides, in assay [3] (IL-6 production inhibition), the midpoint of inhibition, the IC50, lay at 34 nM.
In the case of `COc1cc(OC[C@H](O)CCO)ccc1-c1ccc2c(c1COc1cc(F)ccc1C)N(C)C(=O)C(C)(C)N2` [Compound 2-2, (R)-7-[4-(2,4-dihydroxybutyl)oxy-2-methoxyphenyl]-8-(5-fluoro-2-methyl-phenoxymethyl)-1,3,3-trimethyl-3,4-dihydro-1H-quinoxalin-2-one], the inhibition at 10 µM in assay [2] was found to be 91%. In assay [1], the Emax was 95%.
Taken in the same sequence, the figures for `COc1cc(OCC(O)CC(=O)N2CCOCC2)ccc1-c1ccc2c(c1COc1cc(F)ccc1C)N(C)C(=O)C(C)(C)N2` (stereo not drawn) [Compound 10-2, 8-(5-fluoro-2-methylphenoxymethyl)-7-[4-[3-(N-morpholino)carbonyl-2-hydroxypropyl]oxy-2-methoxyphenyl]-1,3,3-trimethyl-3,4-dihydro-1H-quinoxalin-2-one] were above 99% and above 99%.
Regarding `COc1cc(OC[C@H](C)OC(=O)C2CCCN2)ccc1-c1ccc2c(c1COc1cc(F)ccc1C)N(C)C(=O)C(C)(C)N2.Cl` (stereo partly drawn) [Compound 11-2, 8-(5-Fluoro-2-methylphenoxymethyl)-7-[4-[(2S)-[(2S)-pyrrolidylcarbonyloxy]-propyl]oxy-2-methoxyphenyl]-1,3,3-trimethyl-3,4-dihydro-1H-quinoxalin-2-one hydrochloride], in assay [4], the “Inhibitory ratio (%) on elevated vascular permeability” value amounted to 92%.
